Consider eleven compounds from EP4417602A1, “SUBSTITUTED PYRAZOLE CARBOXAMIDES, SALTS THEREOF AND THEIR USE AS HERBICIDALLY ACTIVE SUBSTANCES” (Bayer AG, priority 2023, dated 2024).

Each structure is given as a SMILES string.

One data set deals with ZEAMX. Briefly: D. Pre-emergence effects on crop plants (Tables D). Conditions: crop plant. Format: in vivo, Zea mays. In a few lines: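 Pre-emergence soil-surface treatment at 320 g/ha or lower, using wettable-powder or emulsifiable-concentrate formulations in water plus 0.5% additive, over freshly sown seeds in covered sandy loam. Damage was rated visually as percent versus untreated pots (100% = dead plants) after about 3 weeks of greenhouse growth.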

A further data set concerns ECHCG. Briefly: E. Herbicidal post-emergence action, weed and crop plants (Tables E). Format: in vivo, Echinochloa crus-galli. Conditions: application rate 320 g/ha, visual assessment after ca. 3 weeks. From the text:
(§1) Seeds of mono- and dicotyledonous weed plants and crop plants were sown, in plastic or organic planting pots, in sandy loam, covered with soil and grown in a greenhouse under controlled growth conditions. 2 to 3 weeks after sowing, the test plants were sprayed in the single-leaf stage. The compounds according to the invention, formulated in form of wettable powders (WP) or as emulsifiable concentrates (EC), were sprayed onto the green plant parts as aqueous suspension or emulsion, with the addition of 0.5% of an additive, at an application rate of 6001 of water/ha (converted). The test plants were placed in the greenhouse for ca. 3 weeks under optimum growth conditions, and then the effect of the preparations was assessed visually in comparison with untreated controls (herbicidal effect in percent (%): 100% effect = plants have died off, 0% effect = as control plants). Tables E1 to E7 below show the effects of selected compounds of the general formula (I) according to table 1 on various harmful plants and an application rate corresponding to 320 g/ha or below obtained by the experimental procedure mentioned above. Table E1: post-emergence activity at 320g/ha against ALOMY in %

The next data set concerns ORYZA. Nature of the data set: F. Post-emergence effects on crop plants (Tables F). Format: in vivo, Oryza sativa. Conditions: crop plant.
Source text: as §1, with “F1” for “E1”, “F5” for “E7”, “crop” for “harmful”, “[…]:” for “E1:”, “ZEAMX” for “ALOMY”

The subject of data set [1] is ALOMY. Briefly: B. Herbicidal post-emergence action on harmful plants (Tables B). Format: in vivo, Alopecurus myosuroides. The protocol:
Seeds of mono- and dicotyledonous weed plants were placed in plastic pots in sandy loam soil (doubly sown with in each case one species of mono- or dicotyledonous weed plants per pot), covered with soil and cultivated in a greenhouse under controlled growth conditions. 2 to 3 weeks after sowing, the test plants were treated at the one-leaf stage. The compounds of the invention, formulated in the form of wettable powders (WP) or as emulsion concentrates (EC), were applied onto the green parts of the plants as aqueous suspension or emulsion with addition of 0.5% additive at a water application rate of 600 liters per hectare (converted). After the test plants had been kept in the greenhouse under optimum growth conditions for about 3 weeks, the activity of the preparations was rated visually in comparison to untreated controls. For example, 100% activity = the plants have died, 0% activity = like control plants. Tables B1 to B12, below, show the effects of selected compounds of the general formula (I) according to table 1 on various harmful plants and an application rate corresponding to 1280 g/ha or below obtained by the experimental procedure mentioned above. Table B1a: post-emergence activity at 1280g/ha against ABUTH in %

In data set [2] the test system is ALOMY. Nature of the data set: E. Herbicidal post-emergence action, weed and crop plants (Tables E). Conditions: application rate 320 g/ha, visual assessment after ca. 3 weeks. Format: in vivo, Alopecurus myosuroides.
Source text: as §1

Data set [3] has as its system SETVI. Nature of the data set: B. Herbicidal post-emergence action on harmful plants (Tables B). Format: in vivo, Setaria viridis. Particulars: application rate 1280 g/ha; Table B5. The gist of the method: (§2)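 Activity was scored visually as % damage (100% = dead, 0% = like untreated) about 3 weeks after treatment. Plants at the one-leaf stage, 2-3 weeks old, were sprayed with WP/EC formulations plus 0.5% additive (600 L/ha water, up to 1280 g/ha). Plants were grown in sandy loam in a greenhouse.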

Data set [4] relates to VERPE. Nature of the data set: C. Herbicidal pre-emergence action, weed and crop plants (Tables C). In kind it is in vivo, Veronica persica. Conditions: application rate 320 g/ha; Table C11. From the text: (§3) Seeds of mono- and dicotyledonous weed plants and crop plants were sown, in plastic or organic planting pots, in sandy loam and covered with soil. The compounds according to the invention, formulated in the form of wettable powders (WP) or as emulsifiable concentrates (EC), were applied to the surface of the covering soil as aqueous suspension or emulsion, with the addition of 0.5% of an additive, at an application rate of 6001 of water/ha (converted). Following treatment, the pots were placed in a greenhouse and kept under optimum growth conditions for the test plants. The visual grading of the damage to the test plants was carried out after ca. 3 weeks in comparison to untreated controls (herbicidal effect in percent (%): 100% effect = plants have died off, 0% effect = as control plants). Tables C1 to C12 below show the effects of selected compounds of the general formula (I) according to table 1 on various harmful plants and an application rate corresponding to 320 g/ha or below obtained by the experimental procedure mentioned above. Table C1: pre-emergence activity at 320g/ha against KCHSC in %

The subject of data set [5] is VERPE. Briefly: B. Herbicidal post-emergence action on harmful plants (Tables B). Format: in vivo, Veronica persica. In a few lines:
as §2

For data set [6], the system named is SETVI. Nature of the data set: E. Herbicidal post-emergence action, weed and crop plants (Tables E). Format: in vivo, Setaria viridis. Conditions: application rate 320 g/ha, visual assessment after ca. 3 weeks.
Source text: as §1

The subject of another data set is AMARE. Nature of the data set: C. Herbicidal pre-emergence action, weed and crop plants (Tables C). In kind it is in vivo, Amaranthus retroflexus. Conditions: application rate 320 g/ha; Table C3.
Source text: as §3

For the next data set, the system named is TRZAS. Nature of the data set: D. Pre-emergence effects on crop plants (Tables D). Format: in vivo, Triticum aestivum. Particulars: crop plant. From the text:
Seeds of mono- and dicotyledonous weed plants and crop plants were sown, in plastic or organic planting pots, in sandy loam and covered with soil. The compounds according to the invention, formulated in the form of wettable powders (WP) or as emulsifiable concentrates (EC), were applied to the surface of the covering soil as aqueous suspension or emulsion, with the addition of 0.5% of an additive, at an application rate of 6001 of water/ha (converted).
Following treatment, the pots were placed in a greenhouse and kept under optimum growth conditions for the test plants. The visual grading of the damage to the test plants was carried out after ca. 3 weeks in comparison to untreated controls (herbicidal effect in percent (%): 100% effect = plants have died off, 0% effect = as control plants).
Tables D1 to D5 below show the effects of various compounds of the general formula (I) according to Table 1 on various crop plants and an application rate corresponding to 320 g/ha or below obtained by the experimental procedure mentioned above in Biological Examples, Section C. Table D1a: pre-emergence activity at 320g/ha against ZEAMX in %

Another data set deals with STEME. Nature of the data set: B. Herbicidal post-emergence action on harmful plants (Tables B). In kind it is in vivo, Stellaria media. Particulars: application rate 1280 g/ha; Table B6. In a few lines: as §2
Setting [7] is: application rate 80 g/ha, Table D1b.
Where [8] appears, read: application rate 1280 g/ha, Table B9a.
Setting [9] is: application rate 1280 g/ha, Table B11a.
Setting [10] is: application rate 80 g/ha, Table D2b.
Where [11] appears, read: application rate 320 g/ha, Table B9b.

Take `C=C(c1ccccc1F)C1CCCN1C(=O)c1cn(C)nc1COC` (racemic) [Example I-023]: in the data set with ZEAMX (setting [7]), the “pre-emergence activity against ZEAMX” value worked out at 0%.

In the case of `COCc1nn(C)cc1C(=O)N1CCCC1Cc1ccccc1F` (racemic) [Example I-002], the “post-emergence activity against ECHCG in %” value in the data set on ECHCG is 80%.

For `COCc1c(C(=O)N2CCCC2Cc2ccccc2Cl)cnn1C` (racemic) [Example I-170], in the data set with ECHCG, the “post-emergence activity against ECHCG in %” value was determined as 80%. The “post-emergence activity against ORYZA in %” value in the data set on ORYZA (application rate 80 g/ha) was determined as 0%. Further, the “post-emergence activity against ALOMY” value with ALOMY [1] (setting [8]) worked out at 90%. In addition, the “post-emergence activity against ALOMY in %” value in the data set on ALOMY [2] was 80%. Besides, the “post-emergence activity against SETVI” value with SETVI [3] was 90%. For the same compound, the “pre-emergence activity against VERPE” value in the data set on VERPE [4] was determined as 80%. The “post-emergence activity against VERPE” value in the data set on VERPE [5] (setting [9]) amounted to 90%.

On to `COCc1nn(C)cc1C(=O)N1CCCC1C(O)c1ccccc1F` (single isomer, unassigned) [Example I-053], for which the “post-emergence activity against SETVI” value with SETVI [3] turned out to be 90%. Further, in the data set with VERPE [4], the “pre-emergence activity against VERPE” value is 80%. The “post-emergence activity against SETVI in %” value in the data set with SETVI [6] is reported as 80%. Also, the “pre-emergence activity against AMARE” value in the data set with AMARE is on record as 90%.

With `COCc1nn2c(c1C(=O)N1CCCC1Cc1ccccc1F)CCC2` (racemic) [Example I-022], the “pre-emergence activity against ZEAMX” value with ZEAMX (setting [7]) turned out to be 0%. Besides, the “pre-emergence activity against TRZAS” value in the data set on TRZAS (setting [10]) is 0%.

Regarding `CNC(=O)n1cc(C(=O)N2CCCC2Cc2ccccc2F)c(COC)n1` (racemic) [Example I-051], the “post-emergence activity against STEME” value in the data set with STEME is 90%. Moreover, the “post-emergence activity against ALOMY in %” value with ALOMY [2] is given as 80%.

On to `Cn1cc(C(=O)N2CCCC2Cc2ccc(F)cc2F)c(COc2ccccc2)n1` (racemic) [Example I-008], for which the “post-emergence activity against ORYZA in %” value in the data set on ORYZA (application rate 80 g/ha) and with ORYZA (application rate 320 g/ha) was 0% throughout. For the same compound, the “post-emergence activity against ALOMY” value with ALOMY [1] (setting [8]) was determined as 90%. For the same compound, the “pre-emergence activity against ZEAMX” value was 10% in the data set on ZEAMX (setting [7]) and 20% with ZEAMX (application rate 320 g/ha, Table D1a). Also, the “pre-emergence activity against TRZAS” value with TRZAS (setting [10]) came to 10%.

Take `COCc1nn(C(=O)OC(C)(C)C)cc1C(=O)N1CCCC1Cc1ccccc1F` (racemic) [Example I-040]: in the data set on ZEAMX (setting [7]), the “pre-emergence activity against ZEAMX” value amounted to 20%.

As to `COCc1nn(C)cc1C(=O)N1CCCC1Cc1ccccc1F` (single isomer, unassigned) [Example I-003], the “post-emergence activity against ECHCG in %” value in the data set on ECHCG turned out to be 80%. Further, in the data set on ORYZA (application rate 80 g/ha), the “post-emergence activity against ORYZA in %” value came out at 0%. Besides, the “post-emergence activity against ALOMY” value in the data set with ALOMY [1] (application rate 80 g/ha, Table B9c) is 100%; in the data set with ALOMY [1] (setting [11]), 100%; in the data set with ALOMY [1] (setting [8]) it was 100%. Besides, the “post-emergence activity against ALOMY in %” value in the data set on ALOMY [2] is recorded as 80%. Moreover, the “pre-emergence activity against VERPE” value with VERPE [4] came to 80%. Moreover, the “post-emergence activity against SETVI in %” value with SETVI [6] is recorded as 80%. Further, the “pre-emergence activity against AMARE” value in the data set with AMARE is on record as 90%. In addition, the “post-emergence activity against VERPE” value in the data set with VERPE [5] (application rate 80 g/ha, Table B11c) came out at 90%; in the data set on VERPE [5] (application rate 320 g/ha, Table B11b), 90%; in the data set on VERPE [5] (setting [9]), 90%.

With `Cn1cc(C(=O)N2CCCC2Cc2ccccc2F)c(COc2ccccc2)n1` (racemic) [Example I-006], the “post-emergence activity against ORYZA in %” value in the data set on ORYZA (application rate 80 g/ha) and with ORYZA (application rate 320 g/ha) was 0% throughout. The “post-emergence activity against ALOMY” value with ALOMY [1] (setting [11]) and in the data set on ALOMY [1] (setting [8]) was 90% throughout. Besides, the “post-emergence activity against ALOMY in %” value in the data set on ALOMY [2] was 90%. In the data set with ZEAMX (setting [7]), the “pre-emergence activity against ZEAMX” value turned out to be 0%. The “pre-emergence activity against TRZAS” value is recorded as 0% with TRZAS (setting [10]) and 20% in the data set with TRZAS (application rate 320 g/ha, Table D2a).

With `COCc1c(C(=O)N2CCCC2Cc2ccccc2F)cnn1C` (single isomer, unassigned) [Example I-157], the “post-emergence activity against STEME” value in the data set with STEME came to 100%. Further, in the data set on ORYZA (application rate 80 g/ha), the “post-emergence activity against ORYZA in %” value was 10%. Besides, in the data set on ALOMY [2], the “post-emergence activity against ALOMY in %” value was found to be 80%. The “pre-emergence activity against VERPE” value with VERPE [4] was determined as 80%.
